Measurements taken from patent US20090018189A1, “Hormone Sensitive Lipase Modulators And Methods Of Use” (DEVIRIS, priority 2007, published 2009).

Biological target: T1, recombinant HSL (Homo sapiens, UniProt Q05469)
T1 sequence (Q05469 1-1076): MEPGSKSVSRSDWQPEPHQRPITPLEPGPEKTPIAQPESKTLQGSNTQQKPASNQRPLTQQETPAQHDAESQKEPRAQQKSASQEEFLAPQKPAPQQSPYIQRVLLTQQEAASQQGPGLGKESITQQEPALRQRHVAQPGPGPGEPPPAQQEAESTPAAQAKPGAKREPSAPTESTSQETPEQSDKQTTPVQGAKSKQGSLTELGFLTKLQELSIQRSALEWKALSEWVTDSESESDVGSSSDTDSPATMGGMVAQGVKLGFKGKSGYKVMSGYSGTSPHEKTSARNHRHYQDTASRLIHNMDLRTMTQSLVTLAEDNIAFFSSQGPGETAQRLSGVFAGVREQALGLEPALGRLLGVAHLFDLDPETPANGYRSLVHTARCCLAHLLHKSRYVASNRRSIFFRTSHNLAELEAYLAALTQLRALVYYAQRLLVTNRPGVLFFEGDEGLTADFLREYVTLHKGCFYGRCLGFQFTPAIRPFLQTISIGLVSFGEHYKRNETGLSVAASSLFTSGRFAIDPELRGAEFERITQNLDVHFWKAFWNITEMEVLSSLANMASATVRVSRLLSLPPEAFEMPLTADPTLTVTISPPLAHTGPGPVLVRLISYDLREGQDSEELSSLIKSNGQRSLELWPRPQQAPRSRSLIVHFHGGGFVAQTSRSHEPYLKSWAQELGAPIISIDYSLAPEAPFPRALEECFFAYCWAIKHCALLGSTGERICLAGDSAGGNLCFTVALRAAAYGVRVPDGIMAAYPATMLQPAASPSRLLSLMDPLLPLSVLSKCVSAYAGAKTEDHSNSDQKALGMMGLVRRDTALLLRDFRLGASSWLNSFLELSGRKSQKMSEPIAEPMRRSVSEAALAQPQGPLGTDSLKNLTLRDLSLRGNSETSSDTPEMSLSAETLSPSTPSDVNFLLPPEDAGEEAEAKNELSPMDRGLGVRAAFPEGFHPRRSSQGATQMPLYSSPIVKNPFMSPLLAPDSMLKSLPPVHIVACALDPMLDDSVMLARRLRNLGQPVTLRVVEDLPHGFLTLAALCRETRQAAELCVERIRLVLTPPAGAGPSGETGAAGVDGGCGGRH
Test: Inhibition of recombinant HSL activity
Type: biochemical
Protocol: Compounds 1-7 were dissolved in 20% DMSO as 10 mg/mL stock, and used in assays with recombinant HSL to test for the potency for inhibiting HSL activity, the protocol for which is described in International Patent Application No. PCT/US07/00284, which is incorporated by reference in its entirety herein. Each compound's inhibitory effect on HSL is shown in FIG. 1 and 2, with Compound 1 having an IC50 of about 0.1 to about 0.2 mg/mL and Compound 5 showing about 40% inhibition at 0.4 mg/mL.

| SMILES | IC50 (compound stock 10 mg/mL in 20% DMSO, read-out: IC50 for inhibiting HSL activity) [µM] | inhibition at 400 µg/mL (at 0.4 mg/mL) [%] |
| --- | --- | --- |
| CCN(CC)C(CC(=O)OCCc1ccc(O)cc1)CC(=O)OCc1ccccc1 (centres unmarked) [Compound 1] | 242 to 484 |  |
| COC(=O)C(=O)NC(CC(=O)NCCc1ccc(O)cc1)CC(=O)OCc1ccccc1 (centres unmarked) [Compound 5] |  | ~40 |
